Results on 5 compounds are retold here after patent US20130178517A1, “Methods And Compositions For Treatment Of Lipogenic Virus Related Conditions” (priority 2010, published 2013).

One experiment has as its system Ad-36 in preadipocytes. The conditions noted are these: preadipocytes in tissue culture; cited from earlier work.
Experiment [1] deals with FAS protein in MCF-7 cells infected with Ad-36. Nature of the experiment: FAS protein expression (Western blot) in MCF-7 cells infected with Ad-36. The format is cell-based, human. Particulars: Ad-36-infected MCF-7 cells; for FAS protein expression: vs infected untreated control; for amount of FAS protein: range of 10 uM/L to 100 uM/L (FIG. 8). As to the method: MCF-7 cells were incubated with Adv36 and a range of 10 uM/L to 100 uM/L of Didox or Tridox.
Human breast cancer cells (MCF-7) were infected with Ad-36 virus and treated with antiviral compounds Didox or Tridox. MCF-7 cells were incubated with Ad-36 and a range of about 10 μM/L to about 100 μM/L of Didox or Tridox. The control for the experiments was MCF-7 cells infected with Ad-36 that were not treated with an antiviral compound. Fifty micrograms of protein was loaded per lane on an SDS-PAGE gel, followed by Western blot analysis detecting FAS.

For experiment [2], the system named is FAS protein in 3T3-L1 cells. Nature of the experiment: FAS protein expression (Western blot) in 3T3-L1 preadipocyte cells with MDI and Ad-36. The conditions noted are these: for FAS protein as dosage is increased: 3T3-L1 preadipocyte cells (FIG. 9 as described). The format is cell-based, mouse. As to the method:
The effects of Tridox on FAS protein expression were evaluated in 3T3-L preadipocyte cells. Control cells were maintained without exposure to Ad-36 or to the differentiation cocktail of methyl-isobutyl-xanthine, dexamethasone, and insulin (MDI). See, e.g., Ntambi and CheulKim, J. Nutrition, 120: […] for description of MDI differentiation cocktail.
In general terms: In western blotting, separated proteins are transferred to a membrane and probed.

The test system of experiment [3] is phosphorylated Akt in MCF-10A cells. As to the kind of experiment: Akt phosphorylation (Western blot) in MCF-10A cells with or without Ad-36 infection. Format: cell-based, human. As to the method: MCF-10A cells were infected with Ad-36 and treated with luteolin and/or metformin, then Akt phosphorylation was measured using Western blot. The top band is phosphorylated Akt. […] Lane 2 is MCF-10A cells infected with Ad-36 virus. Lane 3 is metformin, MCF-10A cells infected with Ad-36 virus. Lane 4 is uninfected MCF-10A cells treated with metformin. Lane 5 is MCF-10A cells infected with Ad-36 virus and treated with luteolin. Lane 6 is uninfected MCF-10A cells treated with luteolin. Lane 7 is MCF-10A cells infected with Ad-36 and treated with a combination of metformin and luteolin. Lane 8 is uninfected MCF-10A cells treated with a combination of metformin and luteolin.

Experiment [4] relates to Ad-36. As to the kind of experiment: TCID50 of A549 cells exposed to Ad-36. Format: cell-based, human adenovirus 36 in human A549 cells. As for the experimental part: “TCID50” refers to 50% tissue culture infective dose (TCID50), an endpoint dilution assay that quantifies the amount of virus required to kill 50% of infected hosts or to produce a cytopathic effect in 50% of inoculated tissue culture cells.
The experimental conditions were assessed: (A) Control condition in which cells were infected with the virus throughout incubation, no luteolin added; (B) Cells and virus were both pretreated with luteolin, then the cells were incubated with both the virus and luteolin; and (C) Cells pretreated with luteolin only, luteolin removed, then cells incubated with virus but without luteolin. The TCID50 value was calculated for each group.

In experiment [5] the test system is MCF-10A cells infected with Ad-36. Nature of the experiment: Growth rate (cell count) of MCF-10A cells infected with Ad-36. Particulars: 5 μM. Format: cell-based, human. As for the experimental part:
FIG. 11 is a graph showing that luteolin reduces the growth rate of MCF-10A cells infected with Ad-36. […] Over a time course, cells were trypsinized and counted using a hemocytometer. As illustrated, ⋄ refers to mock infected cells incubated without luteolin; □ refers to mock infected cells treated with luteolin; Δ refers to Ad-36-infected cells incubated without luteolin; and × refers to Ad-36-infected cells treated with luteolin.
Luteolin reduces the growth rate of […] (MCF-10A) that have been infected with Ad-36 in tissue culture (FIG. 11). MCF-10A cells were infected with a multiplicity of infection (MOI) of 0.5 at day 0 for 2 hours, then replaced with fresh medium containing 5 μM luteolin or vehicle. At each time period, cells were trypsinzed and counted using a hemocytometer. Fresh luteolin (5 μM) was added on day 0 (after infection), day 3 and day 5 in order to insure a constant concentration of agent. […] The cells infected with Ad-36 and not exposed to luteolin had the highest growth rate, faster than cells without Ad-36. When luteolin is added, cell growth is slowed.

For experiment [6], the system named is Ad-36. Nature of the experiment: Replication of Ad-36 in A549 cells assessed by cytopathic effect (CPE). Format: cell-based, human adenovirus 36 in human A549 cells. Particulars: multiple different doses, 100 TCID/well, CPE 3 and 4 days post-infection. As to the method: A549 cells were infected with a fixed amount of Ad-36 (100 TCID/well) for 2 hours, then media containing the virus was removed, replaced with serial dilutions of metformin, luteolin, or a combination. Cytopathic effect (CPE) was evaluated 3 days and 4 days post-infection (PI). Each condition had 8 wells. The efficacy of the different drug treatments was evaluated by determining whether there were fewer wells with CPE as compared to the control condition for the different treatment conditions, which reflected the degree to which a particular treatment was working to inhibit the virus.
For orientation: Damage to the host cells serves as the signal in cytopathic effect assays.

The mark [7] stands for this setting: MCF-10A cells infected with Ad-36 and treated.
Where [8] appears, read: uninfected MCF-10A cells treated.

Entries after “also recorded” stand apart in the source; their conditions may differ.

As to `Nc1ccn(C[C@@H](CO)OCP(=O)(O)O)c(=O)n1` [Cidofovir], in the experiment with Ad-36 in preadipocytes, the “lipogenic effect of Ad-36” value is given as “block the lipogenic effect”.
Regarding `O=C(NO)c1ccc(O)c(O)c1` [Didox, 3,4 dihydrobezohydoxamic acid], the FAS protein expression result in experiment [1] (about 50 μM) and in experiment [1] (about 100 μM) was “decrease” each time. Also, the “amount of FAS protein” value in experiment [1] is listed as “decreased”. In addition, the “FAS protein as dosage is increased” value in experiment [2] is reported as “decreased”.
Take `NC(=NO)c1cc(O)c(O)c(O)c1` [Tridox, 3,4,5 trihydroxybenzamidoxime]: the FAS protein expression result in experiment [1] (about 10 μM), in experiment [1] (about 50 μM) and in experiment [1] (about 100 μM) was “decrease” each time. The “amount of FAS protein” value in experiment [1] was “decreased”. Further, in experiment [2] (3T3-L1 cells), the “infection with Ad-36 (conclusion from FAS data)” value was “inhibits infection with Ad-36”. Further, in experiment [2] (3T3-L1 cells exposed to Ad-36 in media containing 10 μM), the FAS protein levels entry was “even lower”. In addition, the FAS expression result in experiment [2] (3T3-L1 cells infected with Ad-36, then incubated with MDI and 10 μM) was “modest decrease”; in experiment [2] (3T3-L1 cells pretreated with compound, then incubated with MDI and Ad-36), “more marked decrease; also recorded: greater decrease”. Besides, the “FAS protein as dosage is increased” value in experiment [2] is recorded as “decreased”.
Regarding `O=c1cc(-c2ccc(O)c(O)c2)oc2cc(O)cc(O)c12` [luteolin], the Akt phosphorylation result in experiment [3] (setting [7]) was “marked reduction”; in experiment [3] (setting [8]) it was “stimulated”. In the experiment on Ad-36 [4] (A549 cells, overall conclusion), the “virulence of Ad-36 infection / Ad-36 infection” value was “blocks virulence; also recorded: inhibits Ad-36 infection”. The TCID50 value entry is “slightly higher than control” in the experiment with Ad-36 [4] (Group B: cells and virus pretreated with luteolin, then cells incubated with virus and luteolin, vs control); “lowest and low” with Ad-36 [4] (Group C: cells pretreated with luteolin only, luteolin removed, then incubated with virus). The TCID value result in the experiment with Ad-36 [4] (second experiment (not shown), same condition as Group B, vs control) is listed as “increased almost twice as much as the control value”. Also, the “growth rate (cell number)” value in experiment [5] (Ad-36-infected (MOI 0.5) MCF-10A cells) was “slowest growth rate; also recorded: slow growth rate”. For the same compound, the “cell growth when compound is added” value in experiment [5] (MCF-10A cells) was “slowed”. For the same compound, the “effect of Ad-36 on A549 cells (CPE, replication)” value in the experiment on Ad-36 [6] is reported as “inhibits”.
On to `CN(C)C(=N)N=C(N)N` [metformin], for which the Akt phosphorylation result is reported as “marked reduction” in experiment [3] (setting [7]) and “stimulated” in experiment [3] (setting [8]). The “effect of Ad-36 on A549 cells (CPE, replication)” value in the experiment on Ad-36 [6] was “inhibits”.
